The record followed here is patent US9388140B2, “Substituted benzimidazoles” (priority 2011, dated 2016).

What is called pIC50 is the IC50 on a negative log10 scale, so that one unit is a factor of ten.

The target of this test is human kinase Mps-1 (Homo sapiens (Human), UniProt P33981). The test is described as follows: Mps-1 kinase assay (TR-FRET). The test is classed as biochemical. Particulars: N-terminally GST-tagged human full length recombinant Mps-1; 10 μM ATP; 1 μM biotinylated peptide substrate; read-out: Mps1 IC50. The method, then:
The human kinase Mps-1 phosphorylates a biotinylated substrate peptide. Detection of the phosphorylated product is achieved by time-resolved fluorescence resonance energy transfer (TR-FRET) from Europium-labelled anti-phospho-Serine/Threonine antibody as donor to streptavidin labelled with cross-linked allophycocyanin (SA-XLent) as acceptor. Compounds are tested for their inhibition of the kinase activity.
N-terminally GST-tagged human full length recombinant Mps-1 kinase (purchased from Invitrogen, Karslruhe, Germany, cat. no PV4071) was used. As substrate for the kinase reaction a biotinylated peptide of the amino-acid sequence […] (C-terminus in amide form, purchased from Biosynthan GmbH, Berlin) was used.
The concentration of Mps-1 in the assay was adjusted to the activity of the enzyme lot and was chosen appropriate to have the assay in the linear range, typical enzyme concentrations were in the range of about 1 nM (final conc. in the 5 μl assay volume).
The resulting mixture was incubated 1 h at 22° C. to allow the binding of the phosphorylated peptide to the anti-phospho(Ser/Thr)-Europium-antibody. Subsequently the amount of phosphorylated substrate was evaluated by measurement of the resonance energy transfer from the Europium-labelled anti-phospho(Ser/Thr) antibody to the Streptavidin-XLent.
(TR-FRET usually uses a lanthanide donor and a delayed reading to cut background.)

pIC50: −log10 of the molar value.

Sequence of human kinase Mps-1 (P33981 whole entry): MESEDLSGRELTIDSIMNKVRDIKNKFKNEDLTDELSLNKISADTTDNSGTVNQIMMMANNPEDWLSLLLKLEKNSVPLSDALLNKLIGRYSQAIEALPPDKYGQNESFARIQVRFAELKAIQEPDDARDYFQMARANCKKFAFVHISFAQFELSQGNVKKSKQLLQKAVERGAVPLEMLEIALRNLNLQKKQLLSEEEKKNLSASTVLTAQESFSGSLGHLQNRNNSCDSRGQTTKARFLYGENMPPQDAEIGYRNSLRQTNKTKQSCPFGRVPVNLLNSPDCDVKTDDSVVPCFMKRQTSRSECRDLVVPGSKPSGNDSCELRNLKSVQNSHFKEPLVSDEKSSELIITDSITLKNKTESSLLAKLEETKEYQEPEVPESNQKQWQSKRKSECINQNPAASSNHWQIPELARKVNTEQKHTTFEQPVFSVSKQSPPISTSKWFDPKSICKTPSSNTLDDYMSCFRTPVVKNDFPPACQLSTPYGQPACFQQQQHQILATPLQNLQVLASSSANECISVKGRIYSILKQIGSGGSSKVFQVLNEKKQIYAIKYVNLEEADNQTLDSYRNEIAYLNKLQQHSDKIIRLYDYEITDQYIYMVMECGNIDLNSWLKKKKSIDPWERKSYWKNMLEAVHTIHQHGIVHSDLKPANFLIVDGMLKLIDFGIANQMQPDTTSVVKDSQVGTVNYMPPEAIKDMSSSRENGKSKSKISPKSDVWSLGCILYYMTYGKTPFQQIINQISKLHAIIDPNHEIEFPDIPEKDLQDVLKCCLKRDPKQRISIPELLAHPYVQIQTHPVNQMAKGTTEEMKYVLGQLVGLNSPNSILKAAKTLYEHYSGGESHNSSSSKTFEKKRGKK

With `Cc1cc(-n2cnc3c(NCCC(F)(F)F)cc(Oc4ccc(N5CCOCC5)cc4)cc32)ccc1C(=O)NC1CC1` [Example 60, N-cyclopropyl-2-methyl-4-{6-[4-(morpholin-4-yl)phenoxy]-4-[(3,3,3-trifluoropropyl)amino]-1H-benzimidazol-1-yl}benzamide], the negative-log IC50 (pIC50) was 7.94.

Turning to `Cc1cc(-n2cnc3c(NCCC(F)(F)F)cc(Oc4ccc(OC(F)F)cc4)cc32)ccc1C(=O)NC1CC1` [Example 61, N-cyclopropyl-4-{6-[4-(difluoromethoxy)phenoxy]-4-[(3,3,3-trifluoropropyl)amino]-1H-benzimidazol-1-yl}-2-methylbenzamide], the pIC50 is 8.89.

`Cc1cc(-n2cnc3c(NCCC(F)(F)F)cc(Oc4cccc(OC(F)F)c4)cc32)ccc1C(=O)NC1CC1` [Example 62, N-cyclopropyl-4-{6-[3-(difluoromethoxy)phenoxy]-4-[(3,3,3-trifluoropropyl)amino]-1H-benzimidazol-1-yl}-2-methylbenzamide]: the pIC50 was 8.49.

As to `COc1ccccc1Nc1cc(NCCC(F)(F)F)c2ncn(-c3ccc(C(=O)NC4CC4)c(C)c3)c2c1` [Example 63, N-cyclopropyl-4-{6-[(2-methoxyphenyl)amino]-4-[(3,3,3-trifluoropropyl)amino]-1H-benzimidazol-1-yl}-2-methylbenzamide], the pIC50 is 7.72.

Take `Cc1cc(-n2cnc3c(NCCC(F)(F)F)cc(Oc4cccc(S(C)(=O)=O)c4)cc32)ccc1C(=O)NC1CC1` [Example 64, N-cyclopropyl-2-methyl-4-{6-[3-(methylsulfonyl)phenoxy]-4-[(3,3,3-trifluoropropyl)amino]-1H-benzimidazol-1-yl}benzamide]: the pIC50 was 8.59.

With `COc1cccc(Nc2cc(NCCC(F)(F)F)c3ncn(-c4ccc(C(=O)NC5CC5)c(C)c4)c3c2)c1C` [Example 65, N-cyclopropyl-4-{6-[(3-methoxy-2-methylphenyl)amino]-4-[(3,3,3-trifluoropropyl)amino]-1H-benzimidazol-1-yl}-2-methylbenzamide], the pIC50 is 8.55.

With `CCNC(=O)c1ccc(-n2cnc3c(NCCC(F)(F)F)cc(Oc4cccc(F)c4F)cc32)cc1C` [Example 66, 4-{6-(2,3-difluorophenoxy)-4-[(3,3,3-trifluoropropyl)amino]-1H-benzimidazol-1-yl}-N-ethyl-2-methylbenzamide], the pIC50 was 8.68.

Regarding `CNC(=O)c1ccc(-n2cnc3c(NCCC(F)(F)F)cc(Oc4cccc(F)c4F)cc32)cc1C` [Example 67, 4-{6-(2,3-difluorophenoxy)-4-[(3,3,3-trifluoropropyl)amino]-1H-benzimidazol-1-yl}-N,2-dimethylbenzamide], the pIC50 is 9.00.

Turning to `CNC(=O)c1ccc(-n2cnc3c(NCCC(F)(F)F)cc(Oc4cccc(OC)c4)cc32)cc1C` [Example 68, 4-{6-(3-methoxyphenoxy)-4-[(3,3,3-trifluoropropyl)amino]-1H-benzimidazol-1-yl}-N, 2-dimethylbenzamide], the pIC50 was 8.06.

As for `CCNC(=O)c1ccc(-n2cnc3c(NCCC(F)(F)F)cc(Oc4cccc(OC)c4)cc32)cc1C` [Example 69, N-ethyl-4-{6-(3-methoxyphenoxy)-4-[(3,3,3-trifluoropropyl)amino]-1H-benzimidazol-1-yl}-2-methylbenzamide], the pIC50 is 7.59.

With `COc1cccc(Oc2cc(NCCC(F)(F)F)c3ncn(-c4ccc(C(=O)NC5CC5)c(C)c4)c3c2)c1` [Example 70, N-cyclopropyl-4-{6-(3-methoxyphenoxy)-4-[(3,3,3-trifluoropropyl)amino]-1H-benzimidazol-1-yl}-2-methylbenzamide], the negative-log IC50 (pIC50) was 8.70.

For `CCNC(=O)c1ccc(-n2cnc3c(NCCC(F)(F)F)cc(Oc4cccc(F)c4OC)cc32)cc1C` [Example 71, N-ethyl-4-{6-(3-fluoro-2-methoxyphenoxy)-4-[(3,3,3-trifluoropropyl)amino]-1H-benzimidazol-1-yl}-2-methylbenzamide], the negative logarithm of the IC50 (pIC50) was 7.55.
